{"source": "patent US20230145342A1", "about": "“COMBINATORY TREATMENT” (AALTO UNIVERSITY FOUNDATION SR, priority 2020, published 2023)", "key": {"[1]": {"test": "Dye displacement (competitive-binding) assay between P[5]a host and HSL guests", "details": "HSL guest titrated against P[5]a host with bound fluorescent dye", "description": "The addition of a HSL “[…]” displaces the […] from the cavity again, resulting in a shift back to 468 nm.\nTo measure the binding affinity between the macrocyclic “Host” P[5]a and different homoserine lactone “guests” a competitive-binding assay was used. In this case, a “guest” HSL solution is titrated against a solution of the P[5]a “host”, which has a fluorescent dye bound in its cavity, […], which has a known affinity for the P[5]a. The ratio of P[5]a to HSL enables calculation of the affinity."}, "[2]": {"system": "MDR-Acinetobacter baumannii 5542", "test": "Resistance profile of strain (Table 3)", "type": "cell-based", "details": "strain 5542 A. baumannii"}, "[3]": {"system": "Pseudomonas aeruginosa 2798 (ATCC 2798)", "test": "Resistance profile of strain (Table 3)", "type": "cell-based", "details": "strain 2798 (ATCC 2798)", "description": "(§1) The effect of P[5]a on the penetration and efficacy of coadministered antibiotics Amikacin (a), Cefepime (b), Ceftazidime (c) and Meropenem (d) in MDR resistant clinical isolates were studied."}, "[4]": {"system": "Pseudomonas aeruginosa 5542", "test": "Resistance profile of strain (Table 3)", "type": "cell-based", "details": "strain 5542 P. aeruginosa", "description": "as §1"}, "[5]": {"system": "Pseudomonas aeruginosa 5550", "test": "Resistance profile of strain (Table 3)", "type": "cell-based", "details": "strain 5550", "description": "as §1"}, "[6]": {"system": "Pseudomonas aeruginosa 5832", "test": "Resistance profile of strain (Table 3)", "type": "cell-based", "details": "strain 5832", "description": "as §1"}, "[7]": {"system": "Pseudomonas aeruginosa 5834", "test": "Resistance profile of strain (Table 3)", "type": "cell-based", "details": "strain 5834", "description": "as §1"}, "[8]": {"system": "Pseudomonas aeruginosa 5827", "test": "Resistance profile of strain (Table 3)", "type": "cell-based", "details": "strain 5827"}, "[9]": {"system": "Pseudomonas aeruginosa 5539", "test": "Resistance profile of strain (Table 3)", "type": "cell-based", "details": "strain 5539"}, "[10]": {"system": "P. aeruginosa PAO1", "test": "Antibiotic resistance buildup, daily MIC over 14 consecutive days", "type": "cell-based, Pseudomonas aeruginosa", "details": "coadministration of P[5]a with the antibiotic, 14-day period", "description": "Area below the yellow line means that the bacterium is classified as susceptible to the antibiotic. The area in between yellow and red means that the bacterium is intermediate susceptible to the antibiotic. The area above the red line means that the bacterium is classified as resistant to the antibiotic (According to the “Performance Standards for Antimicrobial Susceptibility Testing”, which is maintained by the Clinical and Laboratory Standards Institute).\nBecause of this, a combined administration of P[5]a with a variety of antibiotics was tested. MIC values with two different antibiotics, meropenem and cefepime (FIG. 2) were tested, over a period of 14 consecutive days (which more than surpasses the length of normal treatments, 7-10 days), when administered together with and without 2.5 mM P[5]a.\nIn this experiment, the minimum inhibitory concentration MIC was analyzed daily for 14 consecutive days, and the highest MIC values (so the highest concentration of antibiotic where the bacteria still grew) was used for the next day. This way, the buildup of resistance over time can be monitored. In FIG. 2, the area below the yellow line means that the bacterium is classified as susceptible to the antibiotic, the area in between yellow and red means that the bacterium is intermediate susceptible to the antibiotic and the area above the red line means that the bacterium is classified as resistant to the antibiotic (According to the “Performance Standards for Antimicrobial Susceptibility Testing”, which is maintained by the Clinical and Laboratory Standards Institute).\nThe effect of P[5]a on encountering resistance development in a pathogenic Gram-negative bacterium, Pserudomonas aeruginosa, strain PA01 was studied over 14-day period. The development of resistance over 14 continuous days by the pathogen PAO1 towards treatment with four clinically relevant antibiotics (meropenem, cefepime, aztreonam and tobramycin) and P[5]a was compared. […] In all antibiotic treatments, reduced susceptibility was observed from day 4 onwards, with complete resistance to all treatments after 12 days.\nThe effect of P[5]a on the enhancement of the penetration of coadministered antibiotics having intracellular targets (aztreonam, cefepime, meropenem and tobramycin) was studied over 14-day period in a pathogenic Gram-negative bacterium, Pserudomonas aeruginosa, strain PA01. […] MIC values were categorized in three groups according to the Clinical and Laboratory Standards Institute: susceptible, intermediate susceptible and resistant."}}, "note": "“Also recorded” adds a separate entry of the source.", "data": [{"compound": "CCCCCCCCCCCC(O)CC(=O)N[C@@H]1CCOC1=O", "note": "(stereo partly shown) [3-OH—C14 HSL]", "values": [{"measurement": "displacement of dye from P[5]a cavity (binding affinity)", "setting": "[1]", "result": "high binding affinity; also recorded: strong displacement"}]}, {"compound": "CCCC(=O)CC(=O)N[C@H]1CCOC1=O", "note": "[3-Oxo-C6]", "values": [{"measurement": "displacement of dye from P[5]a cavity (binding affinity)", "setting": "[1]", "result": "Poor displacement"}]}, {"compound": "CCCCCC(=O)CC(=O)N[C@H]1CCOC1=O", "note": "[3-Oxo-C8 HSL]", "values": [{"measurement": "displacement of dye from P[5]a cavity (binding affinity)", "setting": "[1]", "result": "Medium displacement"}]}, {"compound": "CCCCCCCCCC(=O)CC(=O)NC1CCOC1=O", "note": "(stereo not shown) [3-Oxo-C12 HSL]", "values": [{"measurement": "displacement of dye from P[5]a cavity (binding affinity)", "setting": "[1]", "result": "high binding affinity; also recorded: strong displacement"}]}, {"compound": "CC1(C)S[C@@H]2[C@H](NC(=O)[C@H](N)c3ccccc3)C(=O)N2[C@H]1C(=O)O", "note": "[Ampicillin]", "values": [{"measurement": "Antibiotic resistance (category)", "setting": "[2]", "result": "Resistant to Amikacin, Amoxicillin-clavulanate, Ampicillin,"}]}, {"compound": "CC[C@H]1OC(=O)[C@H](C)[C@@H](O[C@H]2C[C@@](C)(OC)[C@@H](O)[C@H](C)O2)[C@H](C)[C@@H](O[C@@H]2O[C@H](C)C[C@H](N(C)C)[C@H]2O)[C@](C)(O)C[C@@H](C)CN(C)[C@H](C)[C@@H](O)[C@]1(C)O", "note": "[Azithromycin, azithromycin]", "values": [{"measurement": "Antibiotic resistance (category)", "setting": "[2]", "result": "Resistant to Amikacin, Amoxicillin-clavulanate, Ampicillin,"}]}, {"compound": "CCCC(=O)N[C@H]1CCOC1=O", "note": "[C4]", "values": [{"measurement": "displacement of dye from P[5]a cavity (binding affinity)", "setting": "[1]", "result": "Poor displacement"}]}, {"compound": "CC1=C(C(=O)O)N2C(=O)[C@@H](NC(=O)[C@H](N)c3ccccc3)[C@H]2SC1", "note": "[Cefalexin]", "values": [{"measurement": "Antibiotic resistance (category)", "setting": "[2]", "result": "Resistant to Amikacin, Amoxicillin-clavulanate, Ampicillin,"}]}, {"compound": "C[C@@H](O)[C@H]1C(=O)N2C(C(=O)O)=C(S[C@@H]3CN[C@H](CNS(N)(=O)=O)C3)[C@H](C)[C@H]12", "note": "[Doripenem, doripenem]", "values": [{"measurement": "Antibiotic resistance (category)", "setting": "[3]", "result": "Aztreonam & Cefepime, Resistant to Ceftazidime, Cirpofloxacin,"}]}, {"compound": "C[C@@H](O)[C@H]1C(=O)N2C(C(=O)O)=C(S[C@@H]3CN[C@H](C(=O)Nc4cccc(C(=O)O)c4)C3)[C@H](C)[C@H]12", "note": "[Ertapenem, ertapenem]", "values": [{"measurement": "Antibiotic resistance (category)", "setting": "[2]", "result": "Resistant to Amikacin, Amoxicillin-clavulanate, Ampicillin,"}]}, {"compound": "Cc1cc(NS(=O)(=O)c2ccc(N)cc2)no1", "note": "[Sulfamethoxazole]", "values": [{"measurement": "Antibiotic resistance (category)", "setting": "[2]", "result": "Resistant to Amikacin, Amoxicillin-clavulanate, Ampicillin,"}]}, {"compound": "CN(C)c1cc(NC(=O)CNC(C)(C)C)c(O)c2c1C[C@H]1C[C@H]3[C@H](N(C)C)C(O)=C(C(N)=O)C(=O)[C@@]3(O)C(O)=C1C2=O", "note": "[Tigecycline]", "values": [{"measurement": "Antibiotic resistance (category)", "setting": "[2]", "result": "Resistant to Amikacin, Amoxicillin-clavulanate, Ampicillin,"}]}, {"compound": "NCC[C@H](O)C(=O)N[C@@H]1C[C@H](N)[C@@H](O[C@H]2O[C@H](CN)[C@@H](O)[C@H](O)[C@H]2O)[C@H](O)[C@H]1O[C@H]1O[C@H](CO)[C@@H](O)[C@H](N)[C@H]1O", "note": "[amikacin, Amikacin]", "values": [{"measurement": "Antibiotic resistance (category)", "setting": "[2]", "result": "Resistant to Amikacin, Amoxicillin-clavulanate, Ampicillin,"}, {"measurement": "Antibiotic resistance (category)", "setting": "[3]", "result": "Susceptible"}, {"measurement": "Antibiotic resistance (category)", "setting": "[4]", "result": "intermediate susceptible"}, {"measurement": "Antibiotic resistance (value given with the category, MIC)", "setting": "[4]", "result": 16, "unit": "µg"}, {"measurement": "Antibiotic resistance (category)", "setting": "[5]", "result": "Intermediate susceptible"}, {"measurement": "Antibiotic resistance (value given with the category, MIC)", "setting": "[5]", "result": 32, "unit": "µg"}, {"measurement": "Antibiotic resistance (category)", "setting": "[6]", "result": "Intermediate susceptible"}, {"measurement": "Antibiotic resistance (value given with the category, MIC)", "setting": "[6]", "result": 16, "unit": "µg"}, {"measurement": "Antibiotic resistance (category)", "setting": "[7]", "result": "intermediate susceptible"}, {"measurement": "Antibiotic resistance (value given with the category, MIC)", "setting": "[7]", "result": 16, "unit": "µg"}, {"measurement": "Antibiotic resistance (category)", "setting": "[8]", "result": "Intermediate susceptible"}, {"measurement": "Antibiotic resistance (value given with the category, MIC)", "setting": "[8]", "result": 32, "unit": "µg"}, {"measurement": "Antibiotic resistance (category)", "setting": "[9]", "result": "Susceptible"}, {"measurement": "Antibiotic resistance (value given with the category, MIC)", "setting": "[9]", "result": 8, "unit": "µg"}]}, {"compound": "C[C@H]1[C@H](NC(=O)/C(=N\\OC(C)(C)C(=O)O)c2csc(N)n2)C(=O)N1S(=O)(=O)O", "note": "[aztreonam]", "values": [{"measurement": "development of resistance by the pathogen to the respective antibiotic", "setting": "[10]", "result": "greatly slowed"}, {"measurement": "Antibiotic resistance (category)", "setting": "[3]", "result": "Intermediate susceptible"}]}, {"compound": "CO/N=C(\\C(=O)N[C@@H]1C(=O)N2C(C(=O)O)=C(COC(N)=O)CS[C@H]12)c1ccco1", "note": "[cefurixome]", "values": [{"measurement": "Antibiotic resistance (category)", "setting": "[9]", "result": "resistant"}]}, {"compound": "C[C@@H](O)[C@H]1C(=O)N2C(C(=O)O)=C(S[C@@H]3CN[C@H](C(=O)N(C)C)C3)[C@H](C)[C@H]12", "note": "[meropenem, Meropenem]", "values": [{"measurement": "development of resistance by the pathogen to the respective antibiotic", "setting": "[10]", "result": "greatly slowed"}, {"measurement": "Antibiotic resistance (category)", "setting": "[2]", "result": "Resistant to Amikacin, Amoxicillin-clavulanate, Ampicillin,"}, {"measurement": "Antibiotic resistance (category)", "setting": "[3]", "result": "Aztreonam & Cefepime, Resistant to Ceftazidime, Cirpofloxacin,"}, {"measurement": "Antibiotic resistance (category)", "setting": "[4]", "result": "resistant"}, {"measurement": "Antibiotic resistance (value given with the category, MIC)", "setting": "[4]", "result": 8, "unit": "µg"}, {"measurement": "Antibiotic resistance (category)", "setting": "[5]", "result": "resistant"}, {"measurement": "Antibiotic resistance (value given with the category, MIC)", "setting": "[5]", "result": 8, "unit": "µg"}, {"measurement": "Antibiotic resistance (category)", "setting": "[6]", "result": "resistant"}, {"measurement": "Antibiotic resistance (value given with the category, MIC)", "setting": "[6]", "result": 8, "unit": "µg"}, {"measurement": "Antibiotic resistance (category)", "setting": "[7]", "result": "resistant"}, {"measurement": "Antibiotic resistance (value given with the category, MIC)", "setting": "[7]", "result": "cefepime 64 ug, ceftazidime 64 ug and meropenem 64 ug"}, {"measurement": "Antibiotic resistance (category)", "setting": "[8]", "result": "resistant"}, {"measurement": "Antibiotic resistance (value given with the category, MIC)", "setting": "[8]", "result": 16, "unit": "µg"}, {"measurement": "Antibiotic resistance (category)", "setting": "[9]", "result": "resistant"}, {"measurement": "Antibiotic resistance (value given with the category, MIC)", "setting": "[9]", "result": 8, "unit": "µg"}]}, {"compound": "NC[C@H]1O[C@H](O[C@H]2[C@H](O)[C@@H](O[C@H]3O[C@H](CO)[C@@H](O)[C@H](N)[C@H]3O)[C@H](N)C[C@@H]2N)[C@H](N)C[C@@H]1O", "note": "[tobramycin]", "values": [{"measurement": "development of resistance by the pathogen to the respective antibiotic", "setting": "[10]", "result": "greatly slowed"}, {"measurement": "Antibiotic resistance (category)", "setting": "[2]", "result": "Resistant to Amikacin, Amoxicillin-clavulanate, Ampicillin,"}, {"measurement": "Antibiotic resistance (category)", "setting": "[9]", "result": "resistant"}]}, {"compound": "Amoxicillin-clavulanate", "values": [{"measurement": "Antibiotic resistance (category)", "setting": "[2]", "result": "Resistant to Amikacin, Amoxicillin-clavulanate, Ampicillin,"}]}, {"compound": "Colistin", "values": [{"measurement": "Antibiotic resistance (category)", "setting": "[3]", "result": "Susceptible"}]}, {"compound": "Piperacillin-tazobactam", "values": [{"measurement": "Antibiotic resistance (category)", "setting": "[2]", "result": "Resistant to Amikacin, Amoxicillin-clavulanate, Ampicillin,"}, {"measurement": "Antibiotic resistance (category)", "setting": "[3]", "result": "Aztreonam & Cefepime, Resistant to Ceftazidime, Cirpofloxacin,"}, {"measurement": "Antibiotic resistance (category)", "setting": "[9]", "result": "resistant"}]}]}
